Results published in patent US8809341B2, “2,4-pyrimidinediamine compounds and uses as anti-proliferative agents” (Rigel Pharmaceuticals, Inc., priority 2003, dated 2014).

How the values were obtained:
[1] = test system: H1299 cells; experiment: in vitro antiproliferation assay, H1299 (lung); assay type: cell-based
Method: (§1) The IC50 values of various compounds against a various different tumor cell lines were determined using standard in vitro antiproliferation assays. The tumor cell lines tested were as follows: A549 (lung); H1299 (lung), ACHN (kidney/p53 wt), CAKI (renal cell carcinoma), NCI-H460 (lung); HCT116 (colon/p53w0; HELA (cervix/p53 wt), HUH7 (liver/p53 wt), HUVEC (primary endothelial), LNCAP (prostate), HT-29 (colon); MCF-7 (breast); MCF-7 (breast/ER positive), MDA MB435S (breast); MDA MB231 (breast/ER negative), DU145 (prostate); BxPC-3 (pancreatic); SKOV-3 (ovarian); HepG2 (hepatic), NDHF primary normal human dermal fibroblast), SKMEL28 (breast/p53mut), SKMEL5 (breast/p53 wt), U20S (bone) and PC3 (prostate). […] A blank indicates the specified compound was not tested against the specified cell line.

[2] = test system: A549 cells; experiment: in vitro antiproliferation assay, A549 (lung); assay type: cell-based
Method: as §1

[3] = in vitro antiproliferation, H1299 (lung) cells, Table 4, compounds with no designated stereochemistry tested as racemate
[4] = in vitro antiproliferation, A549 (lung) cells, Table 4, compounds with no designated stereochemistry tested as racemate
[5] = IC50 class against H1299 (lung) tumor cells
[6] = IC50 class against A549 (lung) tumor cells
[7] = A549 (lung) cells, antiproliferation

SMILES | IC50 [1, 5] [µM] | IC50 [2, 6] [µM] | further results
O=C1Nc2cc(Nc3nc(Nc4cccc(-c5ncco5)c4)ncc3F)ccc2OC1CCO (racemic) [compound 237] |  |  | IC50 [1, 3]: ≤ 20 µM; IC50 [2, 4]: ≤ 20 µM
O=C1Nc2cc(Nc3nc(Nc4cccc(-c5cnco5)c4)ncc3F)ccc2OC1CCO (racemic) [compound 238] |  |  | IC50 [1, 3]: ≤ 20 µM; IC50 [2, 4]: ≤ 20 µM
COc1cc(Nc2ncc(F)c(Nc3ccc4c(c3)NC(=O)C(C)S4(=O)=O)n2)cc(OC)c1 (racemic) [compound 250] |  |  | IC50 [1, 3]: ≤ 20 µM; IC50 [2, 4]: ≤ 20 µM
Cc1cc(C)cc(Nc2ncc(F)c(Nc3ccc4c(c3)NC(=O)C(C)S4(=O)=O)n2)c1 (racemic) [compound 251] |  |  | IC50 [1, 3]: ≤ 20 µM; IC50 [2, 4]: ≤ 20 µM
COc1ccc(Nc2ncc(F)c(Nc3ccc4c(c3)NC(=O)C(C)S4)n2)cc1F (racemic) [compound 288] |  |  | IC50 [1, 3]: ≤ 20 µM; IC50 [2, 4]: ≤ 20 µM
CNC(=O)COc1cccc(Nc2ncc(F)c(NC3CCC3)n2)c1 [compound 109] | ≤ 20 | ≤ 20 | 
CCOC(=O)N1CCN(c2ccc(Nc3ncc(F)c(N(C)C4CCC4)n3)cc2)CC1 [compound 126] | ≤ 20 | ≤ 20 | 
CN(c1nc(Nc2cccc(N3CCOCC3)c2)ncc1F)C1CCC1 [compound 127] | ≤ 20 | ≤ 20 | 
CC(=O)N1CCN(c2cccc(Nc3ncc(F)c(N(C)C4CCC4)n3)c2)CC1 [compound 128] | ≤ 20 | ≤ 20 | 
CN1CCN(c2cccc(Nc3ncc(F)c(N(C)C4CCC4)n3)c2)CC1 [compound 129] | ≤ 20 | ≤ 20 | 
CCOC(=O)N1CCN(c2cccc(Nc3ncc(F)c(N(C)C4CCC4)n3)c2)CC1 [compound 130] | ≤ 20 | ≤ 20 | 
O=C(Nc1ccc(Nc2ncc(F)c(NC3CCC3)n2)cc1)c1ccccc1 [compound 131] | ≤ 20 | ≤ 20 | 
Fc1cnc(Nc2ccc(N3CCOCC3)cc2)nc1NC1CCC1 [compound 132] | ≤ 20 | ≤ 20 | 
CC(=O)N1CCN(c2ccc(Nc3ncc(F)c(NC4CCCC4)n3)cc2)CC1 [compound 133] | ≤ 20 | ≤ 20 | 
CN1CCN(c2ccc(Nc3ncc(F)c(NC4CCCC4)n3)cc2)CC1 [compound 134] | ≤ 20 | ≤ 20 | 
Fc1cnc(Nc2cccc(N3CCOCC3)c2)nc1NC1CCCC1 [compound 135] | ≤ 20 | ≤ 20 | 
CC(=O)N1CCN(c2cccc(Nc3ncc(F)c(NC4CCCC4)n3)c2)CC1 [compound 136] | ≤ 20 | ≤ 20 | 
CN1CCN(c2cccc(Nc3ncc(F)c(NC4CCCC4)n3)c2)CC1 [compound 137] | ≤ 20 | ≤ 20 | 
CC(=O)N(C)c1ccc(Nc2ncc(F)c(NC3CCCCC3)n2)cc1 [compound 150] | ≤ 20 | ≤ 20 | 
CN1CCN(c2ccc(Nc3ncc(F)c(NC4CCCCC4)n3)cc2Cl)CC1 [compound 153] | ≤ 20 | ≤ 20 | 
CC(=O)N1CCN(c2ccc(Nc3ncc(F)c(NC4CCC4)n3)cc2)CC1 [compound 154] | ≤ 20 | ≤ 20 | 
CN1CCN(c2ccc(Nc3ncc(F)c(NC4CCCCC4)n3)cc2)CC1 [compound 155] | ≤ 20 | ≤ 20 | 
Cc1cc(Nc2ncc(F)c(NC3CCC3)n2)ccc1N1CCN(C)CC1 [compound 166] | ≤ 20 | ≤ 20 | 
CCN1CCN(c2ccc(Nc3ncc(F)c(NC4CCC4)n3)cn2)CC1 [compound 167] | ≤ 20 | ≤ 20 | 
CCN1CCN(c2ccc(Nc3ncc(F)c(NC4CCCC4)n3)cn2)CC1 [compound 168] | ≤ 20 | ≤ 20 | 
CCN1CCN(c2ccc(Nc3ncc(F)c(NC4CCCCC4)n3)cn2)CC1 [compound 169] | ≤ 20 | ≤ 20 | 
Cc1cc(Nc2ncc(F)c(NC3CCC3)n2)cnc1N1CCN(C)CC1 [compound 171] | ≤ 20 | ≤ 20 | 

SMILES | IC50 [1, 5] [µM] | IC50 [2, 6] [µM] | further results
Cc1cc(Nc2ncc(F)c(NC3CCCC3)n2)cnc1N1CCN(C)CC1 [compound 172] | ≤ 20 | ≤ 20 | 
Cc1cc(Nc2ncc(F)c(NC3CCCCC3)n2)cnc1N1CCN(C)CC1 [compound 173] | ≤ 20 | ≤ 20 | 
CN1CCN(c2ccc(Nc3ncc(F)c(NC4CCC4)n3)cc2CO)CC1 [compound 174] | ≤ 20 | ≤ 20 | 
NC(=O)c1ccc(Nc2ncc(F)c(NC3CCCC3)n2)cc1 [compound 175] | > 20 | ≤ 20 | 
CCN(CC)CCNC(=O)c1ccc(Nc2ncc(F)c(NC3CCCC3)n2)cc1 [compound 176] | ≤ 20 | ≤ 20 | 
COC(=O)CNC(=O)c1ccc(Nc2ncc(F)c(NC3CCCC3)n2)cc1 [compound 177] | ≤ 20 | ≤ 20 | 
CN1CCN(c2ccc(Nc3ncc(F)c(NC4CC(C)(C)N(C)C(C)(C)C4)n3)cc2)CC1 [compound 178] | ≤ 20 | ≤ 20 | 
CN1CCN(c2cccc(Nc3ncc(F)c(NC4CC(C)(C)N(C)C(C)(C)C4)n3)c2)CC1 [compound 179] | ≤ 20 | ≤ 20 | 
CN1CCN(c2ccc(Nc3ncc(F)c(NC4CC(C)(C)N(C)C(C)(C)C4)n3)cc2Cl)CC1 [compound 180] | ≤ 20 | ≤ 20 | 
Cc1cc(Nc2ncc(F)c(NC3CC(C)(C)N(C)C(C)(C)C3)n2)ccc1N1CCN(C)CC1 [compound 181] | ≤ 20 | ≤ 20 | 
Cc1cc(C)cc(Nc2ncc(F)c(Nc3ccc4c(c3)NC(=O)C(C)O4)n2)c1 (stereo not drawn) [compound 230] |  |  | IC50 [1, 3]: ≤ 20 µM
COc1cc(Nc2ncc(F)c(Nc3cc(OC)cc(OC)c3)n2)cc(OC)c1 [compound 840] |  |  | IC50 ([1]; H1299 (lung) cells, in vitro antiproliferation): ≤ 20 µM
NC(=O)COc1ccc(Nc2ncc(F)c(Nc3ccc(OCC(N)=O)cc3)n2)cc1 [compound 971] |  |  | IC50 [2, 7]: > 20 µM
COC(=O)COc1ccc(Nc2nc(Nc3ccc(OCC(N)=O)cc3)ncc2F)cc1 [compound 973] |  |  | IC50 [2, 7]: > 20 µM
COC(=O)COc1cccc(Nc2ncc(F)c(Nc3cccc(O)c3)n2)c1 [compound 976] |  |  | IC50 [2, 7]: > 20 µM
COC(=O)COc1cccc(Nc2ncc(F)c(Nc3ccc(OC(C)C)cc3)n2)c1 [compound 977] |  |  | IC50 [2, 7]: > 20 µM
Oc1ccc(Nc2ncc(F)c(Nc3ccc(O)c(C(F)(F)F)c3)n2)cc1C(F)(F)F [compound 996] |  |  | IC50 [2, 7]: < 20 µM
Cc1cccc(Nc2ncc(F)c(Nc3cccc(C)c3)n2)c1 [compound 997] |  |  | IC50 [2, 7]: ≤ 20 µM
Cc1ccc(Nc2ncc(F)c(Nc3ccc(C)cc3)n2)cc1 [compound 998] |  |  | IC50 [2, 7]: > 20 µM
CNC(=O)COc1cccc(Nc2ncc(F)c(Nc3ccc(OCCC(=O)OC)cc3)n2)c1 [compound 1002] |  |  | IC50 [2, 7]: > 20 µM
CCOC(=O)CCOc1ccc(Nc2nc(Nc3cccc(OCC(=O)NC)c3)ncc2F)cc1 [compound 1003] |  |  | IC50 [2, 7]: > 20 µM
CNC(=O)COc1cccc(Nc2ncc(F)c(Nc3ccc(O)cc3)n2)c1 [compound 1004] |  |  | IC50 [2, 7]: > 20 µM
C=CCNc1ncc(F)c(Nc2ccc3c(c2)OCCO3)n1 [compound 1037] |  | > 20 | 
COc1ccc(Nc2ncc(F)c(Nc3ccc4c(c3)OCCO4)n2)c(OC)c1 [compound 1045] |  | > 20 | 
CC(C)(CC1CCC1)n1ncc2ccc(Nc3ncc(F)c(Nc4ccc(Cl)c(Cl)c4)n3)cc21 [compound 1103] |  |  | IC50 ([1]; H1299 (lung) cells): > 20 µM
Cn1nc(-c2ccccc2)cc1Nc1nc(Nc2cccc(-c3ncco3)c2)ncc1F [compound 1161] |  |  | IC50 ([2]; Homo sapiens, A549 (lung) cells): ≤ 20 µM
